# What was measured:
# Test in all cases: In vitro antibacterial evaluation: minimum inhibitory concentration (MIC), broth dilution method
# Format in all cases: cell-based
# [1] = test system: Enterococcus sp.; conditions: 18 hours at 35° C.
# How it was run: (§1)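 NCCLS M7-A2 broth dilution with Mueller-Hinton II, testing 64-0.06 μg/mL antibiotic against 5×10^5 CFU/mL inocula. Test strains include recent methicillin-, penicillin- or vancomycin-resistant clinical isolates. MIC is the lowest concentration preventing growth.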
# [2] = test system: Escherichia coli; conditions: 18 hours at 35° C.
# How it was run: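 Susceptibility determined by NCCLS-recommended broth dilution (M7-A2), Muller-Hinton II […]. Concentration span 64-0.06 μg/mL, inoculum 5×10^5 CFU/mL. Isolates include strains resistant to methicillin, penicillin and/or vancomycin.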
# [3] = test system: Streptococcus sp.; conditions: 18 hours at 35° C.
# How it was run: as §1
# [4] = test system: Staphylococcus sp.; conditions: for MIC Staphylococcus aureus (ATCC 29213): strain ATCC 29213; for MIC Staphylococcus aureus (GC 1131): strain GC 1131; for MIC Staphylococcus aureus (GC 3051): strain GC 3051; for MIC Staphylococcus aureus (GC 3053): strain GC 3053; for MIC Staphylococcus aureus (GC 4541): strain GC 4541; for MIC Staphylococcus aureus (GC 4542): strain GC 4542; for MIC Staphylococcus aureus (GC 4544): strain GC 4544; for MIC Staphylococcus aureus (GC 4545): strain GC 4545
# How it was run: as §1
# [5] = broth dilution, inoculum 5×10^5 CFU/mL
# [6] = broth dilution, 5×10^5 CFU/mL, 18 hours at 35° C.
# [7] = broth dilution, 18 hours at 35° C.
smiles,measurement,setting,value
"CC(c1ccccc1)C1NC(=O)CNC(=O)C(CO)NC(=O)C(C(O)C2CNC(=N)N2C2OC(CO)C(O)C(O)C2O)NC(=O)C(C(O)C2CNC(=N)N2)NC(=O)C(Cc2ccc(OC3OC(CO)C(OC4OC5COC6(CC(C)(C)CC(C)(C)C6)OC5C(O)C4O)C(O)C3O)cc2)NC1=O (stereo not drawn) [Example 207, Cyclo[glycyl-β-methylphenylalanyl-O-[4-O-[4,6-O-(3,3,5,5-tetramethylcyclohexylidene)hexopyranosyl]hexopyranosyl]tyrosyl-3-(2-iminoimidazolidin-4-yl)seryl-3-(3-hexopyranosyl-2-iminoimidazolidin-4-yl)serylseryl]]",MIC Enterococcus avium (GC 4558),[1]; Enterococcus avium (GC 4558),1 mg/L
same,MIC Enterococcus faecalis (ATCC 29212),[1]; Enterococcus faecalis (ATCC 29212),4 mg/L
same,MIC Enterococcus faecalis (GC 2242),[1]; Enterococcus faecalis (GC 2242),4 mg/L
same,MIC Enterococcus faecalis (GC 2691),[1]; Enterococcus faecalis (GC 2691),2 mg/L
same,MIC Enterococcus faecalis (GC 3059),[1]; Enterococcus faecalis (GC 3059),2 mg/L
same,MIC Enterococcus faecalis (GC 4552),[1]; Enterococcus faecalis (GC 4552),4 mg/L
same,MIC Enterococcus faecalis (GC 4553),[1]; Enterococcus faecalis (GC 4553),4 mg/L
same,MIC Enterococcus faecalis (GC 4554),[1]; Enterococcus faecalis (GC 4554),4 mg/L
same,MIC Enterococcus faecalis (GC 6189),[1]; Enterococcus faecalis (GC 6189),2 mg/L
same,MIC Enterococcus faecium (GC 2243),[1]; Enterococcus faecium (GC 2243),4 mg/L
same,MIC Enterococcus faecium (GC 4556),[1]; Enterococcus faecium (GC 4556),4 mg/L
same,MIC Enterococcus faecium (GC 4557),[1]; Enterococcus faecium (GC 4557),2 mg/L
same,MIC Enterococcus avium (GC 4558),[1]; [5],1 mg/L
same,MIC Enterococcus faecalis (ATCC 29212),[1]; [5],4 mg/L
same,MIC Enterococcus faecalis (GC 2242),[1]; [5],4 mg/L
same,MIC Enterococcus faecalis (GC 2691),[1]; [5],2 mg/L
same,MIC Enterococcus faecalis (GC 3059),[1]; [5],2 mg/L
same,MIC Enterococcus faecalis (GC 4552),[1]; [5],4 mg/L
same,MIC Enterococcus faecalis (GC 4553),[1]; [5],4 mg/L
same,MIC Enterococcus faecalis (GC 4554),[1]; [5],4 mg/L
same,MIC Enterococcus faecalis (GC 6189),[1]; [5],2 mg/L
same,MIC Enterococcus faecium (GC 2243),[1]; [5],4 mg/L
same,MIC Enterococcus faecium (GC 4556),[1]; [5],4 mg/L
same,MIC Enterococcus faecium (GC 4557),[1]; [5],2 mg/L
same,MIC Escherichia coli (ATCC 25922),[2]; Escherichia coli (ATCC 25922),32 mg/L
same,MIC Escherichia coli (GC 4559),[2]; Escherichia coli (GC 4559),64 mg/L
same,MIC Escherichia coli (GC 4560),[2]; Escherichia coli (GC 4560),2 mg/L
same,MIC Streptococcus agalactiae (GC 4564),[3]; Streptococcus agalactiae (GC 4564),<0.12 mg/L
same,MIC Streptococcus pneumoniae (ATCC 6301),[3]; Streptococcus pneumoniae (ATCC 6301),<0.12 mg/L
same,MIC Streptococcus pneumoniae (GC 1894),[3]; Streptococcus pneumoniae (GC 1894),<0.12 mg/L
same,MIC Streptococcus pneumoniae (GC 4565),[3]; Streptococcus pneumoniae (GC 4565),<0.12 mg/L
same,MIC Streptococcus pyogenes (GC 4563),[3]; Streptococcus pyogenes (GC 4563),<0.12 mg/L
same,MIC Streptococcus agalactiae (GC 4564),[3]; [5],<0.12 mg/L
same,MIC Streptococcus pneumoniae (ATCC 6301),[3]; [5],<0.12 mg/L
same,MIC Streptococcus pneumoniae (GC 1894),[3]; [5],<0.12 mg/L
same,MIC Streptococcus pneumoniae (GC 4565),[3]; [5],<0.12 mg/L
same,MIC Streptococcus pyogenes (GC 4563),[3]; [5],<0.12 mg/L
same,MIC Staphylococcus aureus (ATCC 29213),[4],1 mg/L
same,MIC Staphylococcus aureus (GC 1131),[4],2 mg/L
same,MIC Staphylococcus aureus (GC 3051),[4],2 mg/L
same,MIC Staphylococcus aureus (GC 3053),[4],1 mg/L
same,MIC Staphylococcus aureus (GC 4541),[4],1 mg/L
same,MIC Staphylococcus aureus (GC 4542),[4],1 mg/L
same,MIC Staphylococcus aureus-SMITH (GC 4543),[4]; strain GC 4543,1 mg/L
same,MIC Staphylococcus aureus (GC 4544),[4],1 mg/L
same,MIC Staphylococcus aureus (GC 4545),[4],1 mg/L
same,MIC Staphylococcus haemolyticus (GC 4546),[4]; strain GC 4546,1 mg/L
same,MIC Coagulase Negative Staphylococcus (GC 4547),[4]; strain GC 4547,1 mg/L
same,MIC Coagulase Negative Staphylococcus (GC 4548),[4]; strain GC 4548,0.5 mg/L
same,MIC Coagulase Negative Staphylococcus (GC 4549),[4]; strain GC 4549,0.5 mg/L
same,MIC Coagulase Negative Staphylococcus (GC 4551),[4]; strain GC 4551,4 mg/L
CC(c1ccccc1)C1NC(=O)CNC(=O)C(CO)NC(=O)C(C(O)C2CNC(=N)N2C2OC(CO)C(O)C(O)C2O)NC(=O)C(C(O)C2CNC(=N)N2)NC(=O)C(Cc2ccc(OC3OC(CO)C(OC4OC5COC(C67CC8CC(CC(C8)C6)C7)OC5C(O)C4O)C(O)C3O)cc2)NC1=O (stereo not drawn) [Example 127],MIC Enterococccus avium (GC 4558),"[1]; broth dilution, 5×10^5 CFU/mL",2 mg/L
same,MIC Enterococccus faecalis (ATCC 29212),"[1]; broth dilution, 5×10^5 CFU/mL",2 mg/L
same,MIC Enterococccus faecalis (GC 2691),"[1]; broth dilution, 5×10^5 CFU/mL",4 mg/L
same,MIC Enterococccus faecalis (GC 3059),"[1]; broth dilution, 5×10^5 CFU/mL",2 mg/L
same,MIC Enterococccus faecalis (GC 4552),"[1]; broth dilution, 5×10^5 CFU/mL",4 mg/L
same,MIC Enterococccus faecalis (GC 4553),"[1]; broth dilution, 5×10^5 CFU/mL",4 mg/L
same,MIC Enterococccus faecalis (GC 4554),"[1]; broth dilution, 5×10^5 CFU/mL",4 mg/L
same,MIC Enterococccus faecalis (GC 6189),"[1]; broth dilution, 5×10^5 CFU/mL",2 mg/L
same,MIC Enterococccus faecium (GC 2243),"[1]; broth dilution, 5×10^5 CFU/mL",4 mg/L
same,MIC Enterococccus faecium (GC 4556),"[1]; broth dilution, 5×10^5 CFU/mL",4 mg/L
same,MIC Enterococccus faecium (GC 4557),"[1]; broth dilution, 5×10^5 CFU/mL",4 mg/L
same,MIC Enterococcus faecalis (GC 2242),"[1]; broth dilution, 5×10^5 CFU/mL",4 mg/L
same,MIC Escherichia coli (ATCC 25922),[2]; 5×10^5 CFU/mL,64 mg/L
same,MIC Escherichia coli (GC 4559),[2]; 5×10^5 CFU/mL,64 mg/L
same,MIC Escherichia coli (GC 4560),[2]; 5×10^5 CFU/mL,4 mg/L
same,MIC Streptococcus agalactiae (GC 4564),"[3]; broth dilution, 5×10^5 CFU/mL",<0.12 mg/L
same,MIC Streptococcus pneumoniae (GC 1894),"[3]; broth dilution, 5×10^5 CFU/mL",<0.12 mg/L
same,MIC Streptococcus pneumoniae (GC 4565),"[3]; broth dilution, 5×10^5 CFU/mL",<0.12 mg/L
same,MIC Streptococcus pneumonine (ATCC 6301),"[3]; broth dilution, 5×10^5 CFU/mL",<0.12 mg/L
same,MIC Streptococcus pyogenes (GC 4563),"[3]; broth dilution, 5×10^5 CFU/mL",0.25 mg/L
same,MIC Coagulase Negative Staphylococcus (GC 4547),[4]; [6],4 mg/L
same,MIC Coagulase Negative Staphylococcus (GC 4548),[4]; [6],2 mg/L
same,MIC Coagulase Negative Staphylococcus (GC 4549),[4]; [6],1 mg/L
same,MIC Coagulase Negative Staphylococcus (GC 4551),[4]; [6],2 mg/L
same,MIC Staphylococcus aureus-SMITH (GC 4543),[4]; [6],2 mg/L
same,MIC Staphylococcus haemolyticus (GC 4546),[4]; [6],2 mg/L
same,MIC Staphylococcus aureus (ATCC 29213),[4],2 mg/L
same,MIC Staphylococcus aureus (ATCC 29213),[4]; [7],2 mg/L
same,MIC Staphylococcus aureus (GC 1131),[4],4 mg/L
same,MIC Staphylococcus aureus (GC 1131),[4]; [7],4 mg/L
same,MIC Staphylococcus aureus (GC 3051),[4],2 mg/L
same,MIC Staphylococcus aureus (GC 3051),[4]; [7],2 mg/L
same,MIC Staphylococcus aureus (GC 3053),[4],2 mg/L
same,MIC Staphylococcus aureus (GC 3053),[4]; [7],2 mg/L
same,MIC Staphylococcus aureus (GC 4541),[4],4 mg/L
same,MIC Staphylococcus aureus (GC 4541),[4]; [7],4 mg/L
same,MIC Staphylococcus aureus (GC 4542),[4],2 mg/L
same,MIC Staphylococcus aureus (GC 4542),[4]; [7],2 mg/L
same,MIC Staphylococcus aureus-SMITH (GC 4543),"[4]; strain GC 4543, broth dilution, 18 hours at 35° C.",2 mg/L
same,MIC Staphylococcus aureus (GC 4544),[4],4 mg/L
same,MIC Staphylococcus aureus (GC 4544),[4]; [7],4 mg/L
same,MIC Staphylococcus aureus (GC 4545),[4],2 mg/L
same,MIC Staphylococcus aureus (GC 4545),[4]; [7],2 mg/L
same,MIC Staphylococcus haemolyticus (GC 4546),"[4]; strain GC 4546, broth dilution, 18 hours at 35° C.",2 mg/L
same,MIC Coagulase Negative Staphylococcus (GC 4547),"[4]; strain GC 4547, broth dilution, 18 hours at 35° C.",4 mg/L
same,MIC Coagulase Negative Staphylococcus (GC 4548),"[4]; strain GC 4548, broth dilution, 18 hours at 35° C.",2 mg/L
same,MIC Coagulase Negative Staphylococcus (GC 4549),"[4]; strain GC 4549, broth dilution, 18 hours at 35° C.",1 mg/L
same,MIC Coagulase Negative Staphylococcus (GC 4551),"[4]; strain GC 4551, broth dilution, 18 hours at 35° C.",2 mg/L
